{"source": "patent US20130344595A1", "about": "“CULTURE MEDIA FOR DEVELOPMENTAL CELLS CONTAINING ELEVATED CONCENTRATIONS OF LIPOIC ACID” (Vitrolife Sweden AB, priority 2007, published 2013)", "key": {"[1]": {"test_system": "CF1 mouse embryos", "assay": "Blastocyst development and cell number of mouse embryos cultured with lipoic acid at 20% or 5% O2 (Example 1)", "assay_type": "cell-based", "protocol": "The following procedure was carried out. Lipoic acid was dissolved in ethanol. A 100 mM working solution in 100% EtOH was prepared with appropriate dilutions made to the culture media thereafter (1 μM, 10 μM and 100 μM final concentrations). A vehicle control, equivalent to the dilution of the highest concentration solution (0.1%), was used in all culture experiments. Zygotes were collected from 4-week-old CF1 outbred female mice. Cumulus-enclosed zygotes were collected at 21 h post hCG and denuded with 1 mg/mL hyaluronidase in G-MOPS supplemented with 5 mg/mL human serum albumin. Cultures were incubated at either 5% or 20% O2. After four days of culture, blastocyst development was analyzed and cell number was counted in 200 cultured embryos per treatment.\nThe results are shown in FIGS. 1 (20% O2) and 2 (5% O2). The data are based on 200 embryos cultured per study. […] Furthermore, the beneficial effect of lipoic acid was lost at higher concentrations. […] The data for FIGS. 1 and 2 are presented in Tables 6 and 7, respectively, which also provide the results for the trophectoderm, inner cell mass (ICM) and ICM ratio."}, "[2]": {"test_system": "CF1 mouse embryos", "assay": "Sequential G1/G2 culture of mouse embryos, G1 with or without 10 μM lipoic acid (Example 2)", "assay_type": "cell-based", "settings": "low O2", "protocol": "CF1 mouse embryos were grown in either G1 alone or G1 plus 10 μM lipoic acid. After 48 hours, embryos from both treatment groups were moved to G2. All cultures were incubated in low O2. Compaction rates were assessed and blastocyst developmental rates were measured at 71 and 78 hours. Blastocysts were then differentially stained and counted."}, "[3]": {"test_system": "CF1 mouse zygote", "assay": "Effective concentration range of lipoic acid on mouse zygote development at 20% oxygen (Example 3)", "assay_type": "cell-based", "settings": "for Day 3 (% compacting) / Day 4 (% Total Blast) / Day 5 (% Hatching) / Day 5 (% Total Blast) / Total Cell Number: 20% oxygen", "description": "The effective range of lipoic acid concentrations to enhance blastocyst development and cell number was established using CF1 mouse embryos."}, "[4]": {"test_system": "reactive oxygen species (ROS)", "assay": "ROS generation in culture medium by UV photo-oxidation, H2DFFDA fluorescent dye (Example 4)", "settings": "all concentrations; compared to vehicle group; UV photo-oxidation in GMOPS-Plus", "protocol": "In order to determine whether the lipoic acid is having an antioxidant effect, a series of experiments were performed using the fluorescent dye […] (H2DFFDA), which reacts with reactive oxygen species (ROS) intermediates. 200 μM H2DFFDA in DMSO was added to GMOPS-Plus (available from Vitrolife). Lipoic acid dissolved in EtOH with the final concentration within the media being 0.1% EtOH. Each drop was then photo-oxidized with 4 successive 2.5 minute exposures using UV light to generate ROS.\nAll results are based on comparison to the vehicle group ([…]), which was not significant in comparison to the control group."}, "[5]": {"test_system": "human embryos", "assay": "Human embryo development in G1 medium with 10 μM lipoic acid (Example 5)", "assay_type": "cell-based", "settings": "G1 medium with 10 μM lipoic acid versus G1 free of lipoic acid", "protocol": "In accordance with the present invention, the effect of lipoic acid-containing culture media on human embryo development is examined. Good prognosis patients have half of their embryos cultured in G1 culture media free of lipoic acid (i.e., the control), while the other half are cultured in G1 medium containing 10 μM lipoic acid (i.e., the elevated lipoic acid medium)."}, "[6]": {"test_system": "8-cell hamster embryos", "settings": "omission from Ham's F10 medium; cited from earlier work"}, "[7]": {"test_system": "rabbit morulae", "settings": "omission from Ham's F10 medium; cited from earlier work"}, "[8]": {"settings": "G1 + 10 μM LA for 48 hours, then G2"}}, "note": "Marks after values point to notes of the source that are not given here."}
{"smiles": "O=C(O)CCCC[C@@H]1CCSS1", "note": "(racemic) [lipoic acid]", "values": [{"measurement": "blastocyst cell number", "setting": "[1]; 1 μM lipoic acid, at either 5% or 20% oxygen", "result": "no statistically significant increase in cell number"}, {"measurement": "blastocyst cell number", "setting": "[1]; 10 μM lipoic acid, outbred (CF1) mouse embryos", "result": "significantly higher cell number"}, {"measurement": "blastocyst cell number versus control medium", "setting": "[1]; 100 μM lipoic acid", "result": "significantly lower cell numbers"}, {"measurement": "Day 5 % Blast", "setting": "[1]; lipoic acid 1 μM, 5% O2", "result": 76.15, "unit": "%"}, {"measurement": "ICM", "setting": "[1]; lipoic acid 1 μM, 5% O2", "result": 16.83}, {"measurement": "ICM ratio", "setting": "[1]; lipoic acid 1 μM, 5% O2", "result": 19.71, "unit": "%"}, {"measurement": "total cell #", "setting": "[1]; lipoic acid 1 μM, 5% O2", "result": 85.40}, {"measurement": "trophectoderm", "setting": "[1]; lipoic acid 1 μM, 5% O2", "result": 68.57}, {"measurement": "Day 5 % Blast", "setting": "[1]; lipoic acid 1 μM, 20% O2", "result": 59.18, "unit": "%"}, {"measurement": "ICM", "setting": "[1]; lipoic acid 1 μM, 20% O2", "result": 13.07}, {"measurement": "ICM ratio", "setting": "[1]; lipoic acid 1 μM, 20% O2", "result": 19.12, "unit": "%"}, {"measurement": "total cell #", "setting": "[1]; lipoic acid 1 μM, 20% O2", "result": 68.37}, {"measurement": "trophectoderm", "setting": "[1]; lipoic acid 1 μM, 20% O2", "result": 55.30}, {"measurement": "Day 5 % Blast", "setting": "[1]; lipoic acid 10 μM, 5% O2", "result": 76.74, "unit": "%^#"}, {"measurement": "ICM", "setting": "[1]; lipoic acid 10 μM, 5% O2", "result": "22.49^####"}, {"measurement": "ICM ratio", "setting": "[1]; lipoic acid 10 μM, 5% O2", "result": 22.10, "unit": "%"}, {"measurement": "total cell #", "setting": "[1]; lipoic acid 10 μM, 5% O2", "result": "101.77^###"}, {"measurement": "trophectoderm", "setting": "[1]; lipoic acid 10 μM, 5% O2", "result": "79.28^##"}, {"measurement": "Day 5 % Blast", "setting": "[1]; lipoic acid 10 μM, 20% O2", "result": 61.47, "unit": "%^‡"}, {"measurement": "ICM", "setting": "[1]; lipoic acid 10 μM, 20% O2", "result": "16.4731^‡‡‡‡"}, {"measurement": "ICM ratio", "setting": "[1]; lipoic acid 10 μM, 20% O2", "result": 21.25, "unit": "%"}, {"measurement": "total cell #", "setting": "[1]; lipoic acid 10 μM, 20% O2", "result": "77.527^‡‡‡"}, {"measurement": "trophectoderm", "setting": "[1]; lipoic acid 10 μM, 20% O2", "result": "61.054^‡‡"}, {"measurement": "Day 5 % Blast", "setting": "[1]; lipoic acid 100 μM, 5% O2", "result": 53.13, "unit": "%"}, {"measurement": "ICM", "setting": "[1]; lipoic acid 100 μM, 5% O2", "result": 13.61}, {"measurement": "ICM ratio", "setting": "[1]; lipoic acid 100 μM, 5% O2", "result": 18.33, "unit": "%"}, {"measurement": "total cell #", "setting": "[1]; lipoic acid 100 μM, 5% O2", "result": 74.21}, {"measurement": "trophectoderm", "setting": "[1]; lipoic acid 100 μM, 5% O2", "result": 60.61}, {"measurement": "Day 5 % Blast", "setting": "[1]; lipoic acid 100 μM, 20% O2", "result": 42.57, "unit": "%"}, {"measurement": "ICM", "setting": "[1]; lipoic acid 100 μM, 20% O2", "result": 10.2916}, {"measurement": "ICM ratio", "setting": "[1]; lipoic acid 100 μM, 20% O2", "result": 19.07, "unit": "%"}, {"measurement": "total cell #", "setting": "[1]; lipoic acid 100 μM, 20% O2", "result": 53.9583}, {"measurement": "trophectoderm", "setting": "[1]; lipoic acid 100 μM, 20% O2", "result": 43.6667}, {"measurement": "inner cell mass number and percentage inner cell mass of total", "setting": "[2]; 10 μM lipoic acid added to G1", "result": "increased inner cell mass number and percentage inner cell mass of total"}, {"measurement": "% Expanded on Day 4", "setting": "[2]; [8]", "result": 39.7, "unit": "%"}, {"measurement": "% ICM", "setting": "[2]; [8]", "result": 31, "unit": "%**"}, {"measurement": "Day 3 % a.m.", "setting": "[2]; [8]", "result": 81.0, "unit": "%"}, {"measurement": "Day 4 blast % a.m.", "setting": "[2]; [8]", "result": 22.4, "unit": "%"}, {"measurement": "Day 4 blast % p.m.", "setting": "[2]; [8]", "result": 65.5, "unit": "%"}, {"measurement": "ICM", "setting": "[2]; [8]", "result": "16 ± 1"}, {"measurement": "TE", "setting": "[2]; [8]", "result": "34 ± 2"}, {"measurement": "Total", "setting": "[2]; [8]", "result": "50 ± 2"}, {"measurement": "Day 3 (% compacting)", "setting": "[3]; 5 μM LA", "result": 38.9, "unit": "%"}, {"measurement": "Day 4 (% Total Blast)", "setting": "[3]; 5 μM LA", "result": 51.6, "unit": "%"}, {"measurement": "Day 5 (% Hatching)", "setting": "[3]; 5 μM LA", "result": 40.9, "unit": "%"}, {"measurement": "Day 5 (% Total Blast)", "setting": "[3]; 5 μM LA", "result": 81.8, "unit": "%"}, {"measurement": "Total Cell Number", "setting": "[3]; 5 μM LA", "result": "90.2 ± 4.8"}, {"measurement": "Day 3 (% compacting)", "setting": "[3]; 10 μM LA", "result": 51.4, "unit": "%"}, {"measurement": "Day 4 (% Total Blast)", "setting": "[3]; 10 μM LA", "result": 62.9, "unit": "%"}, {"measurement": "Day 5 (% Hatching)", "setting": "[3]; 10 μM LA", "result": 40.0, "unit": "%"}, {"measurement": "Day 5 (% Total Blast)", "setting": "[3]; 10 μM LA", "result": 92.7, "unit": "%"}, {"measurement": "Total Cell Number", "setting": "[3]; 10 μM LA", "result": "91.3 ± 4.7"}, {"measurement": "Day 3 (% compacting)", "setting": "[3]; 20 μM LA", "result": 26.5, "unit": "%"}, {"measurement": "Day 4 (% Total Blast)", "setting": "[3]; 20 μM LA", "result": 42.9, "unit": "%"}, {"measurement": "Day 5 (% Hatching)", "setting": "[3]; 20 μM LA", "result": 31.3, "unit": "%"}, {"measurement": "Day 5 (% Total Blast)", "setting": "[3]; 20 μM LA", "result": 73.1, "unit": "%"}, {"measurement": "Total Cell Number", "setting": "[3]; 20 μM LA", "result": "94.0 ± 7.2"}, {"measurement": "Day 3 (% compacting)", "setting": "[3]; 40 μM LA", "result": 22.9, "unit": "%"}, {"measurement": "Day 4 (% Total Blast)", "setting": "[3]; 40 μM LA", "result": 37.3, "unit": "%"}, {"measurement": "Day 5 (% Hatching)", "setting": "[3]; 40 μM LA", "result": 28.4, "unit": "%"}, {"measurement": "Day 5 (% Total Blast)", "setting": "[3]; 40 μM LA", "result": 74.6, "unit": "%"}, {"measurement": "Total Cell Number", "setting": "[3]; 40 μM LA", "result": "69.4 ± 5.8"}, {"measurement": "Day 3 (% compacting)", "setting": "[3]; 80 μM LA", "result": 22.9, "unit": "%"}, {"measurement": "Day 4 (% Total Blast)", "setting": "[3]; 80 μM LA", "result": 4.6, "unit": "%"}, {"measurement": "Day 5 (% Hatching)", "setting": "[3]; 80 μM LA", "result": 9.4, "unit": "%"}, {"measurement": "Day 5 (% Total Blast)", "setting": "[3]; 80 μM LA", "result": 29.7, "unit": "%"}, {"measurement": "Total Cell Number", "setting": "[3]; 80 μM LA", "result": 34.0}, {"measurement": "blastocyst development by day 5 and cell number relative to the control", "setting": "[3]; above 5 to 40 μM", "result": "lower blastocyst development by day 5 and lower cell number relative to the control"}, {"measurement": "effect on progression to blastocyst stage, blastocyst cell number and inner cell mass", "setting": "[3]; lipoic acid at less than 5 μM", "result": "little, if any, effect"}, {"measurement": "day 4 blastocyst development and cell numbers", "setting": "[3]; lipoic acid greater than about 40 μM", "result": "lower day 4 blastocyst development and decreased cell numbers"}, {"measurement": "concentration of maximum improvement to embryo development", "setting": "[3]; within the range 5 μM to 40 μM", "result": "approximately 10 μM"}, {"measurement": "generation of ROS within the culture media", "setting": "[4]", "result": "concentration-dependent decrease in the generation of reactive oxygen"}, {"measurement": "human embryo development up to the 8-cell and blastocyst stage", "setting": "[5]", "result": "Embryos develop quicker up to the 8-cell and blastocyst stage"}, {"measurement": "effect of omission of lipoic acid on development of 8-cell hamster embryos", "setting": "[6]", "result": "no significant effect on the development at any stage of culture"}, {"measurement": "effect of omission of lipoic acid on culture of rabbit morulae to expanded blastocysts", "setting": "[7]", "result": "no significant effect"}]}
